In general, IC50 refers to the concentration that gives 50% inhibition.

The text below walks through data of ChEMBL document CHEMBL1157266, “A cyclopeptide from the Insect pathogenic fungus Cordyceps sp. BCC 1788” (J Nat Prod, 2006).

Where a SMILES comes first, the peptide text is derived from it. [ ]: non-standard residue; d: D form. NMeY = CN[C@@H](Cc1ccc(O)cc1)C(=O)O; dNMeF = CN[C@H](Cc1ccccc1)C(=O)O; Sar = CNCC(=O)O

One test has as its system Plasmodium falciparum. In words: Antimalarial activity against Plasmodium falciparum K1 by [3H]hypoxanthine uptake. It counts as functional, organism-based.
The subject of another test is Vero. Put plainly: Cytotoxicity against african green monkey Vero cells. The class given is cell-based. The settings on record: Chlorocebus sabaeus.

Take `C[C@H]1[C@@H](O)O[C@@H]2O[C@@]3(C)CC[C@H]4[C@H](C)CC[C@@H]1[C@@]24OO3` [ARTENIMOL]: the IC50 in the test with Plasmodium falciparum was 6 nM.

Take `Cc1c2ccncc2c(C)c2c1[nH]c1ccccc12` [ELLIPTECINE]: in the test on Vero, the IC50 came out at 2440 nM.

Consider `CC[C@H](C)[C@@H]1NC(=O)[C@H](Cc2ccc(O)cc2)N(C)C(=O)[C@H](Cc2ccccc2)NC(=O)CN(C)C(=O)[C@@H]2CCCN2C(=O)[C@@H](Cc2ccccc2)N(C)C(=O)[C@H](CC(C)C)NC1=O` [CORDYHEPTAPEPTIDE A] (cyclo(F[NMeY]IL[dNMeF]P[Sar])), for which the results for the IC50 in the test with Plasmodium falciparum and with Vero were 5350 nM and > 56900 nM, respectively.
